Data reported in PubChem BioAssay AID256 (DTP/NCI, 2004).
“And” between values parts separate entries of the source, which are not always exact repeats. Identical values can stand only once. Inconclusive results and toxic doses are left out.

System: CD2F1 mice, L1210 leukemia ip, survival T/C
Experiment: NCI In Vivo Anticancer Drug Screen. Data for tumor model L1210 Leukemia (intraperitoneal) in CD2F1 (CDF1) mice
Settings: higher = longer survival
Procedure, shortened: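 Transplantable tumor in mice; compound-treated vs vehicle-treated groups. Read-out = treated/control ratio of the measured endpoint.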

[1] = endpoint: mean survival time, dose: 100.0 mg/kg/injection, schedule: Q01DX001 (ip), vehicle: saline with Tween-80
[2] = endpoint: mean survival time, dose: 200.0 mg/kg/injection, schedule: Q01DX001 (ip), vehicle: saline with Tween-80
[3] = endpoint: mean survival time, dose: 400.0 mg/kg/injection, schedule: Q01DX001 (ip), vehicle: saline with Tween-80
[4] = endpoint: mean survival time, dose: 100.0 mg/kg/injection, schedule: Q04DX003 (ip), vehicle: saline
[5] = endpoint: mean survival time, dose: 200.0 mg/kg/injection, schedule: Q04DX003 (ip), vehicle: saline
[6] = endpoint: mean survival time, dose: 400.0 mg/kg/injection, schedule: Q04DX003 (ip), vehicle: saline
[7] = endpoint: mean survival time, dose: 100.0 mg/kg/injection, schedule: Q04DX003 (ip), vehicle: saline with Tween-80
[8] = endpoint: mean survival time, dose: 200.0 mg/kg/injection, schedule: Q04DX003 (ip), vehicle: saline with Tween-80
[9] = endpoint: mean survival time, dose: 400.0 mg/kg/injection, schedule: Q04DX003 (ip), vehicle: saline with Tween-80
[10] = endpoint: mean survival time, dose: 25.0 mg/kg/injection, schedule: Q04DX003 (ip), vehicle: saline with Tween-80
[11] = endpoint: mean survival time, dose: 50.0 mg/kg/injection, schedule: Q04DX003 (ip), vehicle: saline with Tween-80
[12] = endpoint: mean survival time, dose: 75.0 mg/kg/injection, schedule: Q01DX001 (ip), vehicle: other
[13] = endpoint: mean survival time, dose: 150.0 mg/kg/injection, schedule: Q01DX001 (ip), vehicle: other
[14] = endpoint: mean survival time, dose: 100.0 mg/kg/injection, schedule: Q01DX009 (ip), vehicle: saline with Tween-80
[15] = endpoint: mean survival time, dose: 200.0 mg/kg/injection, schedule: Q01DX009 (ip), vehicle: saline with Tween-80
[16] = endpoint: mean survival time, dose: 100.0 mg/kg/injection, schedule: Q01DX001 (ip), vehicle: Klucel (hydroxypropylcellulose) (HPC)
[17] = endpoint: mean survival time, dose: 200.0 mg/kg/injection, schedule: Q01DX001 (ip), vehicle: Klucel (hydroxypropylcellulose) (HPC)
[18] = endpoint: mean survival time, dose: 400.0 mg/kg/injection, schedule: Q01DX001 (ip), vehicle: Klucel (hydroxypropylcellulose) (HPC)

## O=C1C=CC(=O)c2nc3c(nc21)[nH]c1ccccc13
endpoint: mean survival time, dose: 75.0 mg/kg/injection, schedule: Q01DX001 (ip), vehicle: saline
  T/C: 101 % of control
endpoint: mean survival time, dose: 150.0 mg/kg/injection, schedule: Q01DX001 (ip), vehicle: saline
  T/C: 98 % of control
endpoint: mean survival time, dose: 300.0 mg/kg/injection, schedule: Q01DX001 (ip), vehicle: saline
  T/C: 97 % of control

## C[N+](C)(C)Cc1c[nH]c2ccccc12
[1]
  T/C: 94 % of control
[2]
  T/C: 91 % of control
[3]
  T/C: 96 % of control

## Cc1ccc([P+](=O)O)cc1Cl
[4]
  T/C: 102 % of control
[5]
  T/C: 97 % of control
[6]
  T/C: 103 % of control

## CC(=O)O.CC(=O)O.CC(=O)O.CC(=O)O.[Rh].[Rh]
endpoint: mean survival time, dose: 6.25 mg/kg/injection, schedule: Q01DX009 (ip), vehicle: saline
  T/C: 110 % of control
endpoint: mean survival time, dose: 12.5 mg/kg/injection, schedule: Q01DX009 (ip), vehicle: saline
  T/C: 116 % of control
endpoint: mean survival time, dose: 25.0 mg/kg/injection, schedule: Q01DX009 (ip), vehicle: saline
  T/C: 100 % of control

## CC1(C2CC(=O)N(OCc3ccccc3)C2=O)OCCO1 (stereo not drawn)
endpoint: mean survival time, dose: 100.0 mg/kg/injection, schedule: Q04DX003 (ip), vehicle: other
  T/C: 89 % of control
endpoint: mean survival time, dose: 200.0 mg/kg/injection, schedule: Q04DX003 (ip), vehicle: other
  T/C: 87 % of control
endpoint: mean survival time, dose: 400.0 mg/kg/injection, schedule: Q04DX003 (ip), vehicle: other
  T/C: 88 % of control

## O=C(O)c1cc(Cl)nc(Cl)c1
[1]
  T/C: 94 % of control
[2]
  T/C: 97 % of control
[3]
  T/C: 92 % of control

## Oc1ccccc1C=NCc1ccccc1.Oc1ccccc1C=NCc1ccccc1.[Cu]
endpoint: mean survival time, dose: 100.0 mg/kg/injection, schedule: Q04DX002 (ip), vehicle: saline with Tween-80
  T/C: 100 % of control
endpoint: mean survival time, dose: 200.0 mg/kg/injection, schedule: Q04DX002 (ip), vehicle: saline with Tween-80
  T/C: 96 % of control
endpoint: mean survival time, dose: 400.0 mg/kg/injection, schedule: Q04DX002 (ip), vehicle: saline with Tween-80
  T/C: 100 % of control

## N#Cc1[nH]nc2ncnc(N)c12
endpoint: mean survival time, dose: 6.25 mg/kg/injection, schedule: Q01DX009 (ip), vehicle: saline with Tween-80
  T/C: 100 % of control
endpoint: mean survival time, dose: 12.5 mg/kg/injection, schedule: Q01DX009 (ip), vehicle: saline with Tween-80
  T/C: 100 % of control
endpoint: mean survival time, dose: 25.0 mg/kg/injection, schedule: Q01DX009 (ip), vehicle: saline with Tween-80
  T/C: 93 % of control
endpoint: mean survival time, dose: 50.0 mg/kg/injection, schedule: Q01DX009 (ip), vehicle: saline with Tween-80
  T/C: 91 % of control and 98 % of control

## O=C([O][Sb]([O]C(=O)C(Cl)(Cl)Cl)([c]1ccccc1)([c]1ccccc1)[c]1ccccc1)C(Cl)(Cl)Cl
[7]
  T/C: 100 % of control
[8]
  T/C: 93 % of control
[9]
  T/C: 93 % of control

## COc1ccc(C2=CC(=O)N(C(C)C)C2=O)cc1
[10]
  T/C: 116 % of control
[11]
  T/C: 93 % of control
[7]
  T/C: 98 % of control
[8]
  T/C: 108 % of control

## CC(=O)C(CN(C)C)C(C)=O
[12]
  T/C: 106 % of control
[13]
  T/C: 106 % of control

## C(/C=C\c1ccccc1)=C(/C=C/c1ccccc1)/C=C/c1ccccc1
[2]
  T/C: 89 % of control
[3]
  T/C: 89 % of control

## CCO/C=C1\SC(=S)N(c2ccccc2OC)C1=O
[7]
  T/C: 107 % of control
[8]
  T/C: 102 % of control
[9]
  T/C: 107 % of control

## CCCCCC(=O)C(C)CC (stereo not drawn)
[7]
  T/C: 96 % of control
[8]
  T/C: 104 % of control
[9]
  T/C: 94 % of control

## O=C(O)C12CCC(CC1)CC2
[12]
  T/C: 107 % of control
[13]
  T/C: 104 % of control
endpoint: mean survival time, dose: 300.0 mg/kg/injection, schedule: Q01DX001 (ip), vehicle: other
  T/C: 104 % of control

## NC(CSC(c1ccccc1)(c1ccccc1)c1ccc(CBr)cc1)C(=O)O (stereo not drawn)
endpoint: mean survival time, dose: 12.5 mg/kg/injection, schedule: Q01DX009 (ip), vehicle: other
  T/C: 107 % of control
endpoint: mean survival time, dose: 25.0 mg/kg/injection, schedule: Q01DX009 (ip), vehicle: other
  T/C: 107 % of control
endpoint: mean survival time, dose: 50.0 mg/kg/injection, schedule: Q01DX009 (ip), vehicle: other
  T/C: 109 % of control
endpoint: mean survival time, dose: 100.0 mg/kg/injection, schedule: Q01DX009 (ip), vehicle: other
  T/C: 115 % of control
endpoint: mean survival time, dose: 400.0 mg/kg/injection, schedule: Q01DX009 (ip), vehicle: other
  T/C: 164 % of control

## O=C1CCCC(c2ccccc2)c2ccccc21 (stereo not drawn)
endpoint: mean survival time, dose: 100.0 mg/kg/injection, schedule: Q01DX001 (ip), vehicle: saline
  T/C: 97 % of control
endpoint: mean survival time, dose: 200.0 mg/kg/injection, schedule: Q01DX001 (ip), vehicle: saline
  T/C: 97 % of control
endpoint: mean survival time, dose: 400.0 mg/kg/injection, schedule: Q01DX001 (ip), vehicle: saline
  T/C: 97 % of control

## CCCCCC(C(O)C#N)C(O)(C(F)(F)F)C(F)(F)F (stereo not drawn)
endpoint: mean survival time, dose: 100.0 mg/kg/injection, schedule: Q04DX003 (ip), vehicle: Klucel (hydroxypropylcellulose) (HPC)
  T/C: 96 % of control
endpoint: mean survival time, dose: 200.0 mg/kg/injection, schedule: Q04DX003 (ip), vehicle: Klucel (hydroxypropylcellulose) (HPC)
  T/C: 96 % of control
endpoint: mean survival time, dose: 400.0 mg/kg/injection, schedule: Q04DX003 (ip), vehicle: Klucel (hydroxypropylcellulose) (HPC)
  T/C: 90 % of control

## OCCC1=CCCCC1
[14]
  T/C: 91 % of control
[15]
  T/C: 97 % of control
endpoint: mean survival time, dose: 400.0 mg/kg/injection, schedule: Q01DX009 (ip), vehicle: saline with Tween-80
  T/C: 98 % of control

## O=c1c2ccccc2sc2cccc(Sc3ccccc3)c12
[7]
  T/C: 95 % of control
[8]
  T/C: 96 % of control
[9]
  T/C: 91 % of control

## CCOC(=O)C(C(=O)OCC)n1c(=O)c2c(ncn2C)n(C)c1=O
endpoint: mean survival time, dose: 200.0 mg/kg/injection, schedule: Q01DX005 (ip), vehicle: distilled water + Tween-80
  T/C: 102 % of control
endpoint: mean survival time, dose: 400.0 mg/kg/injection, schedule: Q01DX005 (ip), vehicle: distilled water + Tween-80
  T/C: 101 % of control

## CC(=O)Nc1sc([N+](=O)[O-])cc1[N+](=O)[O-]
[10]
  T/C: 101 % of control
[11]
  T/C: 108 % of control
[7]
  T/C: 91 % of control and 101 % of control

## OCCN=Cc1c(Cl)ccc(Cl)c1Cl
[4]
  T/C: 108 % of control
[5]
  T/C: 101 % of control
[6]
  T/C: 104 % of control

## N#CC(c1ccccc1)C(CC(=O)c1ccccc1)c1ccccc1 (stereo not drawn)
[14]
  T/C: 88 % of control
[7]
  T/C: 100 % of control
[15]
  T/C: 88 % of control
[8]
  T/C: 96 % of control
[9]
  T/C: 103 % of control

## COC(=O)CCN(C(=O)c1ccccc1)c1ccccc1C(=O)OC
endpoint: mean survival time, dose: 75.0 mg/kg/injection, schedule: Q04DX003 (ip), vehicle: saline
  T/C: 100 % of control
endpoint: mean survival time, dose: 150.0 mg/kg/injection, schedule: Q04DX003 (ip), vehicle: saline
  T/C: 94 % of control
endpoint: mean survival time, dose: 300.0 mg/kg/injection, schedule: Q04DX003 (ip), vehicle: saline
  T/C: 100 % of control

## CC(=O)C[n+]1ccc(C)cc1Sc1ccccc1C
endpoint: median survival time, dose: 25.0 mg/kg/injection, schedule: Q01DX009 (ip), vehicle: saline with Tween-80
  T/C: 98 % of control
endpoint: median survival time, dose: 50.0 mg/kg/injection, schedule: Q01DX009 (ip), vehicle: saline with Tween-80
  T/C: 96 % of control
endpoint: median survival time, dose: 100.0 mg/kg/injection, schedule: Q01DX009 (ip), vehicle: saline with Tween-80
  T/C: 98 % of control

## O=c1cc(-c2ccc(S(=O)(=O)F)cc2)[nH]c2ccc([N+](=O)[O-])cc12
[16]
  T/C: 108 % of control
[17]
  T/C: 101 % of control
[18]
  T/C: 112 % of control

## CCCc1cc(=O)n(CCCc2ccccc2)c(=O)n1CCCc1ccccc1
[16]
  T/C: 103 % of control
[17]
  T/C: 97 % of control
[18]
  T/C: 90 % of control

## O=C(/C=C(/Nc1ccccc1)c1ccccc1)c1ccccc1
[1]
  T/C: 90 % of control
[2]
  T/C: 92 % of control
[3]
  T/C: 86 % of control

## C=C1C(=O)OC2CC3(C)CCCC(C)C34OC4C12 (stereo not drawn)
endpoint: mean survival time, dose: 50.0 mg/kg/injection, schedule: Q04DX002 (ip), vehicle: saline
  T/C: 90 % of control
endpoint: mean survival time, dose: 100.0 mg/kg/injection, schedule: Q04DX002 (ip), vehicle: saline
  T/C: 98 % of control
endpoint: mean survival time, dose: 200.0 mg/kg/injection, schedule: Q04DX002 (ip), vehicle: saline
  T/C: 114 % of control
